According to publication PMC12471299, “Secondary Metabolites of the Marine Sponge-Derived Fungus Aspergillus subramanianii 1901NT-1.40.2 and Their Antimicrobial and Anticancer Activities” (Marine Drugs, 2025):
In brackets after ≈: the same amount, converted by molar mass. Several values for one entry are separate records, joined by “and”; a condition that tells them apart may be missing. Equal values may be shown once.

Key:
[1] = tested on: malignant glioma U251 cells; design: method as in PMID 29642369; settings: cited from earlier work
[2] = tested on: vancomycin-resistant enterococci strains; design: method as in PMID 29642369; settings: cited from earlier work
[3] = tested on: Escherichia coli VKPM (B-7935); test: Antimicrobial assay, growth inhibition (optical density); assay type: cell-based; settings: E. coli, 18 h
Summary of the method: (§1)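 Growth: OD 620 nm, 18 h, compound ≤100 µM; biofilm […]: MTT, OD 570 nm, 18 h. Cells pregrown on MH agar, 37 °C, 24 h. Gentamicin/amphotericin B as positive controls. Reported as MIC50 vs 1% DMSO in PBS.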

[4] = tested on: Escherichia coli VKPM (B-7935); test: Biofilm formation assay (MTT); assay type: cell-based; settings: E. coli, 18 h
Summary of the method: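 Compound tested from 100 µM downward; 1% DMSO in PBS as negative control. Planktonic growth read as OD at 620 nm after 18 h; 18 h biofilm formation quantified with MTT at 570 nm. Values as percent of control, reported as minimal concentration giving 50% reduction (MIC50).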

[5] = tested on: Staphylococcus aureus ATCC 21027; test: Biofilm formation assay (MTT); assay type: cell-based; settings: S. aureus, 18 h
Summary of the method: as §1

HCT116 cells = tested on: HCT116 cells; design: method as in PMID 29642369; settings: HCT116, at 100 µM; cited from earlier work
MCF-7 cells [6] = tested on: MCF-7 cells; design: method as in PMID 29642369; settings: cited from earlier work
MCF-7 spheroids = test: Three-dimensional culture of MCF-7 cells, spheroid area; assay type: cell-based, human
Description: The anticancer effect of petromurin C (8) was investigated using a 3D culture of MCF-7 cells (Figure 12). MCF-7 spheroids were formed in agarose microwells using MSLA-printed stamps. Compound 8 (10 µM and 20 µM) was added 24 h after the cells were seeded.
MCF-7 cell spheroids were formed in agarose microwells as described previously. Briefly, agarose (2.8%) heated to 60 °C was added to each well of a 96-well plate, and MSLA-printed stamps with microcylinders were inserted and then removed after agarose solidification. Each well contained 34 microwells with a diameter of 300 μm. MCF-7 cells at a concentration of 2 × 10^4 cells/well were added to each well and gently centrifuged to precipitate the cells that had gathered in the microwells. Petromurin C (8) was added after 24 h, and observations were performed daily using an MIB-2-FL fluorescence microscope (Lomo Microsystems, St. Petersburg, Russia) The spheroid area was calculated using CellProfiler software v. 4.2.8 [51, 52]. In total, at least 20 of the same spheroids in each variant were analyzed daily and data were calculated as mean ± SEM.

MCF-7 cells [7] = test: Cell cycle investigation (propidium iodide, flow cytometry); assay type: cell-based, human
Description: After incubation, the cells were trypsinized, harvested, washed with PBS, and fixed with ice-cold 70% ethanol in a dropwise manner prior to storage at −20 °C overnight. The cells were then washed with PBS, incubated with 200 μg/mL RNAse (PanReac, AppliChem, Darmstadt, Germany) and 20 μg/mL of propidium iodide (Sigma-Aldrich, St. Louis, MO, USA) for 30 min at 37 °C, and DNA content was analyzed using a NovoCyte flow cytometer (Agilent, Austin, TX, USA). The proportion of cells in each cell cycle phase was expressed as a percentage.

MCF-7 cells [8] = test: Proliferation assay (CFDA SE, flow cytometry); assay type: cell-based, human; settings: 5 µM, 48 h
Description: MCF-7 cells at a concentration of 1.2 × 10^4 cells/well were seeded in a 12-well plate for 24 h. After adhesion, the cells were stained with (5,6)-carboxyfluorescein succinimidyl ester (CFDA SE) dye (LumiTrace CFDA SE kit; Lumiprobe, Moscow, Russia). Thereafter, the compound (5 µM) was added to the wells.
After 48 h of incubation, the cells were washed twice with PBS, scraped, and collected. The intensity of CFDA fluorescence was analyzed using a NovoCyte flow cytometer (Agilent, Austin, TX, USA), and the data were analyzed as previously described.

MCF-7 cells [9] = test: MCF-7 cell colony formation (clonogenic) assay; assay type: cell-based; settings: Homo sapiens, MCF7, 240 h, 10 d
Description: The effect of the compound on colony formation by MCF-7 cells was assessed using a clonogenic assay. The concentration of MCF-7 cells was 0.33 × 10^3/mL. The cells were incubated for 10 d, fixed with methanol (25 min), stained with 0.5% crystal violet solution (25 min), and washed with PBS. The grown colonies were counted using a BIO-PRINT-Cx4 Edge-Fixed Pad-Container (Vilber, Collegien, France). The results are presented as colony inhibition compared to that of the control.

COC1=C(c2c[nH]c3ccccc23)C(=O)C(CC=C(C)C)=C(c2c[nH]c3ccccc23)C1=O [Compound 6, kumbicin D]
effect on cells ([1]; U251, at 100 µM): weak effects | antibacterial activity [2]: not active | Growth inhibition, MIC50 [3]: 11.42 ± 1.02 µM | MIC50 ([3]; Escherichia coli): 7 to 11 µM (≈ 3.06 to 4.8 µg/mL) | Biofilm formation, MIC50 [4]: 10.34 ± 0.98 µM | Biofilm formation, MIC50 [5]: 7.98 ± 0.57 µM | effect on cells (HCT116 cells): weak effects | effect on cells (MCF-7 cells [6]; MCF-7, at 100 µM): weak effects

COc1c(OC)c(-c2c[nH]c3ccc(O)cc23)c(OC)c(OC)c1-c1c[nH]c2ccccc12 [Compound 8, petromurin C]
effectiveness ([1]; U251 cells): not effective | decrease of spheroid area (MCF-7 spheroids; 10 µM, after 24 h): 19.1% | decrease of spheroid area (MCF-7 spheroids; 10 µM, after 72 h): 28.9% | decrease of spheroid area (MCF-7 spheroids; 20 µM, after 24 h): 29.8% | decrease of spheroid area (MCF-7 spheroids; 20 µM, after 72 h): 32.6% | decrease of the area of MCF-7 3D spheroids (MCF-7 spheroids; abstract, concentration and time not stated): approximately 30% | Biofilm formation, MIC50 [4]: 83.01 µM and 83.01 ± 6.42 µM | Cell Disturbance, G1 Phase (MCF-7 cells [7]; 1 h, 5 µM): 22.69 ± 0.42% | Cell Disturbance, G2/M Phase (MCF-7 cells [7]; 1 h, 5 µM): 29.91 ± 1.95% | Cell Disturbance, S Phase (MCF-7 cells [7]; 1 h, 5 µM): 45.52 ± 1.05% | Cell Disturbance, G1 Phase (MCF-7 cells [7]; 1 h, 10 µM): 21.37 ± 2.18% | Cell Disturbance, G2/M Phase (MCF-7 cells [7]; 1 h, 10 µM): 25.9% and 25.96 ± 0.62 % | Cell Disturbance, S Phase (MCF-7 cells [7]; 1 h, 10 µM): 53.1% and 53.15 ± 1.53 % | Cell Disturbance, G1 Phase (MCF-7 cells [7]; 3 h, 5 µM): 26.2% and 26.20 ± 1.17 % | Cell Disturbance, G2/M Phase (MCF-7 cells [7]; 3 h, 5 µM): 17.2% and 17.20 ± 1.23 % | Cell Disturbance, S Phase (MCF-7 cells [7]; 3 h, 5 µM): 56.6% and 56.60 ± 1.25 % | Cell Disturbance, G1 Phase (MCF-7 cells [7]; 3 h, 10 µM): 33.82 ± 0.98% | Cell Disturbance, G2/M Phase (MCF-7 cells [7]; 3 h, 10 µM): 14.9% and 14.95 ± 1.08 % | Cell Disturbance, S Phase (MCF-7 cells [7]; 3 h, 10 µM): 51.8% and 51.79 ± 0.86 % | percentage of cells in division 1 (MCF-7 cells [8]): 76.9% | percentage of cells in division 2 (MCF-7 cells [8]): 15.2% | percentage of cells in division 3 (MCF-7 cells [8]): 5.5% | inhibition at 5 µM (MCF-7 cells [9]; 5 µM): 16.8% | inhibition at 10 µM (MCF-7 cells [9]; 10 µM): 20.4% | IC50 (MCF-7 cells [6]; MCF-7 cells, read-out: IC50, cell viability): 94.8 µM
